Test results taken from PMC6925768, “Determination of Anlotinib, a Tyrosine Kinase Inhibitor, in Rat Plasma by UHPLC-MS/MS and Its Application to a Pharmacokinetic Study” (Journal of Analytical Methods in Chemistry, 2019).
Like-named read-outs stand apart in the source and are kept apart here.

Legend:
[1] = Stability of stock solutions; assay type: physicochemical; conditions: stock solution in methanol; for Stability of stock solution, long-term test: 4°C for 2 weeks; for Stability of stock solution, short-term test: room temperature for 24 hours
Description: (§1) The stability of three concentrations (0.25, 5, 40 ng/mL) of QCs was analyzed under typical storage conditions: (1) rat plasma stored at room temperature for 12 hours (short-term stability); (2) rat plasma stored at −80°C for 30 days (long-term stability); and (3) under three freeze-thaw cycles from −80°C to room temperature. The stability of stock solution of anlotinib and IS was analyzed under room temperature for 24 hours as well as at 4°C for 2 weeks.

[2] = Pharmacokinetic study in rats after single oral administration; assay type: in vivo, Sprague Dawley rats; conditions: 10 mg/kg
Description: Male Sprague Dawley rats weighing 250 ± 20 g were purchased from the Shanghai Laboratory Animal Co. (Shanghai, China). All experimental rats were housed in a standard cage with a humidity of 50 ± 20%, a constant temperature of 23–25°C, and a light/dark cycle condition for at least 7 days before the pharmacokinetic study. After 8 h fasting (animals had free access to water), the rats received a single oral administration with anlotinib at a dosage of 10 mg/kg. All animal experiments in present study were approved by the Institutional Animal Care and Use Committee of Wenzhou Medical University (Wenzhou, China).
Blood samples (150 μL) were collected from the tail vein before the dose and at 0.17, 0.75, 1, 1.5, 2, 3, 4, 5, 7, 9, 12, 24, and 48 h after the oral administration of anlotinib. These series of blood samples were transferred into 1.5 mL heparinized tubes. The rat blood samples were immediately centrifuged for 10 min at 5,000 rpm at 4°C, and then the separation of plasma was stored at −80°C until analysis. The noncompartmental statistical model was performed to calculate the pharmacokinetic parameters of anlotinib by Drug and Statistics 3.0 software.

[3] = Stability of anlotinib in rat plasma under various storage conditions; assay type: in vitro ADME; conditions: n = 3; for Short-term stability, Mean / Short-term stability, RE: room temperature 12 hours; for Freeze/thaw stability, Mean / Freeze/thaw stability, RE: three freeze-thaw cycles −80°C to room temperature; for Long-term stability, Mean / Long-term stability, RE: −80°C 30 days
Description: as §1

[4] = set-up: method as in PMID 29620050; conditions: reported literature, different dose; cited from earlier work
[5] = tested on: human tumor xenograft models; set-up: method as in PMID 27716285; conditions: especially colon, ovarian, liver, renal, glioma, non-small-cell lung; cited from earlier work
[6] = tested on: refractory advanced non-small-cell lung cancer; set-up: method as in PMID 29438373; conditions: patients with refractory advanced non-small-cell lung cancer; cited from earlier work
[7] = tested on: advanced non-small-cell lung cancer; set-up: method as in PMID 30098152; conditions: advanced non-small-cell lung cancer after second-line or further treatment; cited from earlier work
[8] = male, Sprague Dawley, rat plasma, n = 6
[9] = male, Sprague Dawley, rat, plasma, po, n = 6

## Cc1ccc(NC(=O)c2ccc(CN3CCN(C)CC3)cc2)cc1Nc1nccc(-c2cccnc2)n1 [IS, Imatinib]
[1]
  Stability of stock solution, long-term test: 98.73%
  Stability of stock solution, short-term test: 99.35%

## COc1cc2c(Oc3ccc4[nH]c(C)cc4c3F)ccnc2cc1OCC1(N)CC1 [anlotinib, Anlotinib]
[2]; [8]
  AUC(0-inf): 186 ± 49.2 ng·h/mL
  CL/F: 942 mL/min/kg
[2]; male, Sprague Dawley, rat plasma, n = 6, read-out: MRT(0-t)
  MRT last: 8.98 ± 1.45 h
[2]; male, Sprague Dawley, rat plasma, n = 6, read-out: MRT(0-∞)
  MRT inf: 9.2 ± 1.21 h
[2]; male, Sprague Dawley, rat plasma, n = 6, read-out: t 1/2 z (converted)
  half-life: 5.05 ± 0.62 h
[2]; [9]
  Cmax: 24.2 ± 4.31 ng/mL
  Tmax: 3.33 h
[2]; male, Sprague Dawley, rat, plasma, po, n = 6, read-out: AUC0-t
  AUC0-t: 184 ± 49.8 ng·h/mL
[2]; rat plasma, n = 6
  AUC0-t: 184.431 ± 49.827 ng·h/mL
  C max: 24.219 ± 4.311 ng/mL
  T max: 3.333 ± 0.816 h
  V/F: 406.029 ± 72.748 L/kg
[3]; 0.25 ng/ml in rat plasma
  Short-term stability, Mean: 0.26 ng/mL
  Short-term stability, RE: 4.65%
  Freeze/thaw stability, Mean: 0.26 ng/mL
  Freeze/thaw stability, RE: 2.03%
  Long-term stability, Mean: 0.25 ng/mL
  Long-term stability, RE: −1.55%
[3]; 0.25 ng/ml
  Autosampler stability, Mean: 0.24 ng/mL
  Autosampler stability, RE: −2.27%
[3]; 5 ng/ml in rat plasma
  Short-term stability, Mean: 5.21 ng/mL
  Short-term stability, RE: 4.27%
  Freeze/thaw stability, Mean: 4.94 ng/mL
  Freeze/thaw stability, RE: −1.13%
  Long-term stability, Mean: 5.19 ng/mL
  Long-term stability, RE: 3.75%
[3]; 5 ng/ml
  Autosampler stability, Mean: 5.14 ng/mL
  Autosampler stability, RE: 2.75%
[3]; 40 ng/ml in rat plasma
  Short-term stability, Mean: 41.64 ng/mL
  Short-term stability, RE: 4.1%
  Freeze/thaw stability, Mean: 40.55 ng/mL
  Freeze/thaw stability, RE: 1.39%
  Long-term stability, Mean: 41.19 ng/mL
  Long-term stability, RE: 2.97%
[3]; 40 ng/ml
  Autosampler stability, Mean: 41.14 ng/mL
  Autosampler stability, RE: 2.85%
[1]
  Stability of stock solution, long-term test: 95.96%
  Stability of stock solution, short-term test: 98.96%
[4]
  t1/2: 5.7 ± 3.1 h
[5]
  Activity against human tumor xenograft models: broad activity
[6]
  Progression-free survival versus placebo: obvious progression-free survival (PFS) benefits
  Toxicity tolerance: good toxicity tolerance
[7]
  Overall survival and progression-free survival: improve overall survival (OS) and progression-free survival (PFS)
